Laboratory results published in PubChem BioAssay (NCI).
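The compound was tested at five concentrations on cells cultured in 96-well plates, with a 48-hour exposure period. TGI: total growth inhibition.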

How the values were obtained:
Assay in all cases: NCI-60 cell line screen, 48 h
EKVX NSCLC = tested on: EKVX NSCLC
MOLT-4 leukemia = tested on: MOLT-4 leukemia
CCRF-CEM leukemia = tested on: CCRF-CEM leukemia
HT29 colon = tested on: HT29 colon
SR leukemia = tested on: SR leukemia
SK-OV-3 ovarian = tested on: SK-OV-3 ovarian
A498 renal = tested on: A498 renal
COLO 205 colon = tested on: COLO 205 colon
HCC-2998 colon = tested on: HCC-2998 colon
MDA-MB-435 = tested on: MDA-MB-435
ACHN renal = tested on: ACHN renal
LOX IMVI melanoma = tested on: LOX IMVI melanoma
NCI-H23 lung = tested on: NCI-H23 lung
OVCAR-3 ovarian = tested on: OVCAR-3 ovarian
MCF7 breast = tested on: MCF7 breast
SK-MEL-28 melanoma = tested on: SK-MEL-28 melanoma
U251 CNS = tested on: U251 CNS
SNB-19 CNS = tested on: SNB-19 CNS
MDA-N = tested on: MDA-N
NCI/ADR-RES ovarian = tested on: NCI/ADR-RES ovarian
TK-10 renal = tested on: TK-10 renal
SF-295 CNS = tested on: SF-295 CNS
SN12C renal = tested on: SN12C renal
HL-60(TB) leukemia = tested on: HL-60(TB) leukemia
A549 NSCLC = tested on: A549 NSCLC
DU-145 prostate = tested on: DU-145 prostate
NCI-H460 lung = tested on: NCI-H460 lung
MALME-3M melanoma = tested on: MALME-3M melanoma
UO-31 renal = tested on: UO-31 renal
NCI-H226 lung = tested on: NCI-H226 lung
HOP-62 NSCLC = tested on: HOP-62 NSCLC
UACC-257 melanoma = tested on: UACC-257 melanoma
HS 578T breast = tested on: HS 578T breast
PC-3 prostate = tested on: PC-3 prostate
SW-620 colon = tested on: SW-620 colon
SK-MEL-5 melanoma = tested on: SK-MEL-5 melanoma
SK-MEL-2 melanoma = tested on: SK-MEL-2 melanoma
UACC-62 melanoma = tested on: UACC-62 melanoma
KM12 colon = tested on: KM12 colon
786-0 renal = tested on: 786-0 renal
MDA-MB-231 breast = tested on: MDA-MB-231 breast
SF-268 CNS = tested on: SF-268 CNS
HOP-92 NSCLC = tested on: HOP-92 NSCLC
RPMI-8226 leukemia = tested on: RPMI-8226 leukemia
K-562 leukemia = tested on: K-562 leukemia
M14 melanoma = tested on: M14 melanoma
SF-539 CNS = tested on: SF-539 CNS
HCT-15 colon = tested on: HCT-15 colon
OVCAR-4 ovarian = tested on: OVCAR-4 ovarian
OVCAR-8 ovarian = tested on: OVCAR-8 ovarian
OVCAR-5 ovarian = tested on: OVCAR-5 ovarian
T-47D breast = tested on: T-47D breast

Oc1ccc(O)c(Cc2ccccc2)c1
TGI (EKVX NSCLC): > 100 µM | TGI (MOLT-4 leukemia): 22.8 µM | TGI (CCRF-CEM leukemia): > 100 µM | TGI (HT29 colon): > 100 µM | TGI (SR leukemia): 14.5 µM | TGI (SK-OV-3 ovarian): > 100 µM | TGI (A498 renal): > 100 µM | TGI (COLO 205 colon): 32.6 µM | TGI (HCC-2998 colon): > 100 µM | TGI (MDA-MB-435): 42 µM | TGI (ACHN renal): 28.7 µM | TGI (LOX IMVI melanoma): 41 µM | TGI (NCI-H23 lung): > 100 µM | TGI (OVCAR-3 ovarian): 7.8 µM | TGI (MCF7 breast): 29.4 µM | TGI (SK-MEL-28 melanoma): > 100 µM | TGI (U251 CNS): 45.8 µM | TGI (SNB-19 CNS): > 100 µM | TGI (MDA-N): 41.5 µM | TGI (NCI/ADR-RES ovarian): 42.9 µM | TGI (TK-10 renal): 51.3 µM | TGI (SF-295 CNS): > 100 µM | TGI (SN12C renal): 38.6 µM | TGI (HL-60(TB) leukemia): 4.14 µM | TGI (A549 NSCLC): > 100 µM | TGI (DU-145 prostate): 22.8 µM | TGI (NCI-H460 lung): 49.5 µM | TGI (MALME-3M melanoma): 88.9 µM | TGI (UO-31 renal): 28.4 µM | TGI (NCI-H226 lung): 57.2 µM | TGI (HOP-62 NSCLC): 60.3 µM | TGI (UACC-257 melanoma): 99.5 µM | TGI (HS 578T breast): > 100 µM | TGI (PC-3 prostate): > 100 µM | TGI (SW-620 colon): 56.9 µM | TGI (SK-MEL-5 melanoma): 37.9 µM | TGI (SK-MEL-2 melanoma): 37.3 µM | TGI (UACC-62 melanoma): 56.1 µM | TGI (KM12 colon): 65.2 µM | TGI (786-0 renal): 33.7 µM | TGI (MDA-MB-231 breast): 46.6 µM | TGI (SF-268 CNS): 27.8 µM | TGI (HOP-92 NSCLC): 35.6 µM | TGI (RPMI-8226 leukemia): 21.3 µM | TGI (K-562 leukemia): 25.8 µM | TGI (M14 melanoma): 73.9 µM | TGI (SF-539 CNS): 23 µM | TGI (HCT-15 colon): 29.1 µM | TGI (OVCAR-4 ovarian): 27.2 µM | TGI (OVCAR-8 ovarian): 33.9 µM | TGI (OVCAR-5 ovarian): > 100 µM | TGI (T-47D breast): 11.8 µM
